ChEMBL document CHEMBL3853276, “Alkaloids from Hippeastrum argentinum and Their Cholinesterase-Inhibitory Activities: An in Vitro and in Silico Study” (J Nat Prod, 2016)

How the values were obtained:
[1] = target: Acetylcholinesterase (Electrophorus electricus, UniProt O42275); experiment: Inhibition of electric eel AChE using ATCI as substrate preincubated for 30 mins followed by substrate addition measured after 5 mins by DTNB-based spectrophotometric analysis
[2] = target: Cholinesterase (Equus caballus, UniProt P81908); experiment: Inhibition of equine serum BuChE using ATCI as substrate preincubated for 30 mins followed by substrate addition measured after 5 mins by DTNB-based spectrophotometric analysis
[3] = Selectivity index, ratio of IC50 for electric eel AChE to IC50 for equine serum BuChE

Sequence of Acetylcholinesterase (O42275 whole entry): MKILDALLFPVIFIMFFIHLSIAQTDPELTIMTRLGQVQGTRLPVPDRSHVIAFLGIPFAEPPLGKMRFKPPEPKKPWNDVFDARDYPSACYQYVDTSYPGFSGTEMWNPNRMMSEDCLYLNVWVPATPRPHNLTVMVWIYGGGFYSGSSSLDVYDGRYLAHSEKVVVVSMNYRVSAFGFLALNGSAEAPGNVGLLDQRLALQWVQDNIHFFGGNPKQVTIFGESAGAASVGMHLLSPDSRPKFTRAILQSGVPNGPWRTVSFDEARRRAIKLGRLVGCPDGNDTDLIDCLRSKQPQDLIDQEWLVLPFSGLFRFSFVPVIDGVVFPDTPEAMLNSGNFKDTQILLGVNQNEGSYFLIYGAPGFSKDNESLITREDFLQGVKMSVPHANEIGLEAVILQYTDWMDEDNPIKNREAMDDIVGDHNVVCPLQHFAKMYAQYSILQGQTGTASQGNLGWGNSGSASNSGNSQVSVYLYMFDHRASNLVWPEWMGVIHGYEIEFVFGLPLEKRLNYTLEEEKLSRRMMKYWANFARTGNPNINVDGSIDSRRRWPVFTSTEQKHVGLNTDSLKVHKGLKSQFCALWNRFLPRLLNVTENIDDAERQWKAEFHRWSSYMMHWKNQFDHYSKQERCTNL
Sequence of Cholinesterase (P81908 whole entry): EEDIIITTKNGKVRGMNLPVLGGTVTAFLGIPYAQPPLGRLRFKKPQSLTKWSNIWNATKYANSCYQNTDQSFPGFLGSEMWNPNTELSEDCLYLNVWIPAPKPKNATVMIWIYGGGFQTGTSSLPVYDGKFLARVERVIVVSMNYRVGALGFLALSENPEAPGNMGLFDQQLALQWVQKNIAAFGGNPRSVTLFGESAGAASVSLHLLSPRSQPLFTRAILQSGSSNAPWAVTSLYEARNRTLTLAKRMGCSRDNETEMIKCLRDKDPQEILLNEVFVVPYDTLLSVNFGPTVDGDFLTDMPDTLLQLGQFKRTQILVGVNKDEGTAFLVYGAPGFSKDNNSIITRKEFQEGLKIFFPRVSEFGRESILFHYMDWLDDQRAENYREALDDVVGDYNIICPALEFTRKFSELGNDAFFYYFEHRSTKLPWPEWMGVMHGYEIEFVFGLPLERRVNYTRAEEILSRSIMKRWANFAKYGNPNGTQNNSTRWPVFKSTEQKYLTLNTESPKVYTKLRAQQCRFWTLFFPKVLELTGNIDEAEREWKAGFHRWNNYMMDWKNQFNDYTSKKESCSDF

| SMILES | IC50 [1] | IC50 [2] | Ratio IC50 [3] |
| --- | --- | --- | --- |
| CO[C@H]1[C@H]2C(=CC[C@@H]1O)[C@H]1CN2Cc2cc3c(cc21)OCO3 | > 200 µM | > 200 µM |  |
| O[C@H]1[C@H]2c3cc4c(cc3CN3CCC(=C[C@@H]1O)[C@H]23)OCO4 [LYCORINE] |  | > 200 µM |  |
| CO[C@H]1C=C2[C@H]3C[N@@](Cc4cc5c(cc43)OCO5)[C@H]2C[C@@H]1O [MONTANINE] | > 200 µM | > 200 µM |  |
| O[C@H]1C=C2[C@H]3CN(Cc4cc5c(cc43)OCO5)[C@H]2C[C@@H]1O | > 200 µM | > 200 µM |  |
| CN1CC[C@@H]2C[C@H](O)[C@H]3OC(=O)c4c(cc5c(c4O)OCO5)[C@H]3[C@@H]21 | 114 µM | 67.3 µM | 1.69 |
